Laboratory results taken from patent publication US10959992B2, “Methods of treatment of asthma and COPD” (Bridge Pharma, Inc., priority 2019, dated 2021).
Values after ≈ are worked out from the molar mass of the structure shown.

How the values were obtained:
[1] = system: Methicillin-resistant S. aureus; test: Antimicrobial activity (MIC), MRSA; assay type: cell-based; conditions: Staphylococcus aureus; Bacteria: MRSA; MIC refers to lethal concentrations
[2] = system: IL-8; test: PHA-induced release of IL-8 from human buffy coats; assay type: cell-based; conditions: PHA 5 μg/ml, 16 hours, inhibition
Experimental: The study was conducted in two phases. The first phase included optimization of the test methodology and included also dose-range finding studies, using buffy coats from 3 human donors, stimulated with phytohemagglutinin (PHA). The concentrations of the test article and the duration of exposure were optimized to obtain acceptable dose-response ratios. Following optimization of the test conditions, a final protocol was issued. In the Main Study, buffy coats from 5 healthy human male donors were stimulated with PHA, 5 μg/ml.
The inhibitory effects of three concentrations of NK and one concentration of ketotifen were evaluated in the Main Study. The buffy coats were resuspended in assay media and were pre-incubated for 30 min with either vehicle/saline, ketotifen (10 μM) or norketotifen (1.0; 10 or 100 μM). Following these preincubations, the white blood cell suspensions were stimulated for 16 hours with PHA, 5 μg/ml. The cell system supernatants were then harvested and stored frozen.

## O=C1Cc2ccccc2C(=C2CCNCC2)c2ccsc21 (racemic) [norketotifen]
[1]
  MIC: 2000 µg/mL (≈ 6.77 mM)
[2]; 1 uM
  Effect on PHA-induced release of IL-8 (%): 10.29^2%
[2]; 10 uM
  Effect on PHA-induced release of IL-8 (%): 34.36^1%
[2]; 100 uM
  Effect on PHA-induced release of IL-8 (%): 78.29^1%
